Structures are written as SMILES.

Experiment [1] concerns Ba/F3 EGFR Del19/T790M/C797S cells. The experiment can be described thus: Cell proliferation inhibition assay (Cell Titer-Glo), Ba/F3 EGFR Del19/T790M/C797S. Type of experiment: cell-based. As to conditions: 72 hours, read-out: Ba/F3 EGFR Del19_T790M_C797S IC50. The text has this:
(§1) Test Example 2: Cell Proliferation Inhibition Assay
(§2) Experimental objective: The objective of this test example is to test the inhibitory activity of compounds on the proliferation of different EGFR C797S drug-resistant mutant cell lines Ba/F3 EGFR Del19/T790M/C797S, Ba/F3 EGFR L858R/T790M/C797S, and Ba/F3 EGFR Del19/C797S.
(§3) • Ba/F3 EGFR Del19/T790M/C797S cells were purchased from KYinno Biotechnology Co., Ltd.; • Ba/F3 EGFR Del19/C797S cells were purchased from CoBioer Biosciences Co., Ltd.; • Ba/F3 EGFR L858R/T790M/C797S cells were purchased from CoBioer Biosciences Co., Ltd.; • Cell Titer-Glo was purchased from Promega, with a catalog number of G7573; • RPMI 1640 was purchased from Gibco, with a catalog number of 22400089; • FBS was purchased from Gibco, with a catalog number of 10091148; • cell culture plates were purchased from Corning, with a catalog number of 3610.
(§4) The inhibitory activity of the compound on the proliferation of different EGFR C797S drug-resistant mutant cell lines was detected using the Cell Titer-Glo method. The different cell lines were cultured in RPMI 1640 complete culture medium containing 10% FBS under conditions of 37° C. and 5% CO2, the cells were collected by centrifugation when growing to a certain density, and adjusted to appropriate cell density after counting, the cells were spread on a white 96-well plate at 90 μL/well, and cultured in a 37° C., 5% CO2 incubator overnight, prepared compound solutions of different concentrations were added at 10 μL/well, corresponding solvent controls were set, and all wells were cultured in a 37° C., 5% CO2 incubator for 72 hours, 50 μL of CellTiter-Glo solution was added to each well, shook and mixed evenly, and incubated in the dark for 10 minutes, and a BioTek Synergy H1 microplate reader was used for reading.
(§5) The luminescence signal value was used to calculate the inhibition rate. Graphpad Prism software was used to fit the concentration and inhibition rate to a nonlinear regression curve, so as to obtain the IC50 value, as shown in Tables 3 and 4 below for details.
On the technique in general: ATP-based viability assays read luminescence as a measure of living cells.

In experiment [2] the target is EGFR del19/T790M/C797S mutant kinase (Homo sapiens, UniProt P00533, C797S/DEL746-750/T790M). The experiment can be described thus: HTRF kinase assay, EGFR del19/T790M/C797S mutant kinase. Format: biochemical. The conditions noted are these: 120 minutes at room temperature. The text has this:
(§6) Test Example 1. Determination of the Inhibitory Effect of the Compounds of the Present Invention on the Activity of EGFR del19/T790M/C797S and EGFR L858R/T790M/C797S Mutant Kinases
(§7) Experimental objective: The objective of this test example is to test the inhibitory activity of the compounds on the activity of EGFR del19/T790M/C797S and EGFR L858R/T790M/C797S mutant kinases.
(§8) Experimental method: This experiment used Cisbio's HTRF kinase assay method (Cisbio #62TK0PEB), wherein a catalytic reaction occurred between the substrate polypeptide TK and ATP in the presence of the tyrosine kinase with EGFR del19/T790M/C797S or EGFR L858R/T790M/C797S mutation, the substance was phosphorylated, and the activity of the kinase was characterized by measuring the content of the phosphorylated substrate generated during the reaction, and the half inhibitory concentration IC50 of the compound on the activity of EGFR del19/T790M/C797S or EGFR L858R/T790M/C797S mutant kinase was obtained.
(§9) Specific Experimental Operations were as Follows: • the kinase reaction was carried out in a white 384-well plate (Perkin Elmer #6008280), and 1-5 μL of compounds of different concentrations which were diluted with 1% DMSO-containing ddH2O were added; to the positive control wells were added 1-5 μL of 1% DMSO-containing ddH2O, followed by 1-5 μL of 0.5-5 nM 4×EGFR del19/T790M/C797S or EGFR L858R/T790M/C797S mutant kinase solution which was diluted with Dilution buffer (5× kinase buffer, MgCl2 6.65 Mm, MnCl2 1.33 mM, DTT 1.33 mM); to the negative control wells were added 1-5 μL of Dilution buffer; to all the wells were added 1-5 μL of 4 μM 4× substrate TK solution which was prepared with 10× Dilution buffer, and finally added 1-5 μL of 24 μM 4×ATP solution which was diluted with Dilution buffer to start the reaction; after reacting at room temperature for 120 minutes, 10 μL of detection solution (TK antibody 16 nM, XL665 0.5 μM) was added to each well, same was reacted at room temperature in the dark for 20 minutes, and then the […] was detected using a BioTek Synergy H1 microplate reader.
(§10) The percent inhibition data for compound-treated wells was calculated according to the positive control wells (DMSO control wells) and negative control wells (no kinase added) on the plate {% inhibition rate=100−[(test compound value−negative control value)]/(positive control value−negative control value)×100}. GraphPad prism was used to fit different concentrations and corresponding percent inhibition rate data to a 4-parameter nonlinear logistic equation to calculate IC50 values.

The test system of experiment [3] is Ba/F3 EGFR Del19/C797S cells. The experiment can be described thus: Cell proliferation inhibition assay (Cell Titer-Glo), Ba/F3 EGFR Del19/C797S. Type of experiment: cell-based. As to conditions: 72 hours, read-out: Ba/F3 EGFR Del19_C797S IC50.
From the text: as §1, §2, §3, §4, §5

The target in experiment [4] is EGFR L858R/T790M/C797S mutant kinase (Homo sapiens (Human), UniProt P00533, C797S/L858R/T790M). The experiment can be described thus: HTRF kinase assay, EGFR L858R/T790M/C797S mutant kinase. Type of experiment: biochemical. As to conditions: 120 minutes at room temperature.
Chain of EGFR L858R/T790M/C797S mutant kinase (P00533 25-1210 T790M/C797S/L858R): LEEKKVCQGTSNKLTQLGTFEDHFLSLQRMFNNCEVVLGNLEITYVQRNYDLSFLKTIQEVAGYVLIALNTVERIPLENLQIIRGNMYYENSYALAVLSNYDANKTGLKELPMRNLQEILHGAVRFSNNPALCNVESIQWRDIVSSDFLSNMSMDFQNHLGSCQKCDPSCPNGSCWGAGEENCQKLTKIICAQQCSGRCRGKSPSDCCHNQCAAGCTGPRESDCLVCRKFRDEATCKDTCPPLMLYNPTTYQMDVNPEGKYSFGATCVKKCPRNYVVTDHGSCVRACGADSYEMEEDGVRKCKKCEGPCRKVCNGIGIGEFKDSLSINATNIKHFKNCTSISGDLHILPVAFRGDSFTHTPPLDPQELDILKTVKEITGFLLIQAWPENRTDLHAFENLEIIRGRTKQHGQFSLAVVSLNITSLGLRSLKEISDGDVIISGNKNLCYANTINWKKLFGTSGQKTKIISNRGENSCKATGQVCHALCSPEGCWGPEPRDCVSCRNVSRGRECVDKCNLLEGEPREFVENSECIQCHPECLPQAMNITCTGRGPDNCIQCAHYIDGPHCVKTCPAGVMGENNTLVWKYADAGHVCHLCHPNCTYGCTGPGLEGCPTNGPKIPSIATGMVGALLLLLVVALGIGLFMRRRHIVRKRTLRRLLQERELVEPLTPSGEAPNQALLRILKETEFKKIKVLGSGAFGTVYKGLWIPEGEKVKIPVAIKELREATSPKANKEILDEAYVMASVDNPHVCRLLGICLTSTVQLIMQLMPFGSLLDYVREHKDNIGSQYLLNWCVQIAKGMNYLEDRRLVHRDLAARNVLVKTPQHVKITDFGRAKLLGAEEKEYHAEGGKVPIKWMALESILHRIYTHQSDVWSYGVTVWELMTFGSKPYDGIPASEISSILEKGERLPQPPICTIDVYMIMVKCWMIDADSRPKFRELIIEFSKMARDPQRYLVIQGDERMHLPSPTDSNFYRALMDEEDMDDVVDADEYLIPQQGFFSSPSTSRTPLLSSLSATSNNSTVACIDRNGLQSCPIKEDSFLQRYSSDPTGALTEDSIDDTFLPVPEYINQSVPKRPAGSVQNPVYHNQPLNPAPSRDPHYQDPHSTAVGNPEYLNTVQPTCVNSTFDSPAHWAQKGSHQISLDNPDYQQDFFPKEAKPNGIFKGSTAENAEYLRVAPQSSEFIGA
From the text: as §6, §7, §8, §9, §10

Chain of EGFR del19/T790M/C797S mutant kinase (P00533 with tags, fused parts or gaps C797S/DEL746-750/T790M limits assumed): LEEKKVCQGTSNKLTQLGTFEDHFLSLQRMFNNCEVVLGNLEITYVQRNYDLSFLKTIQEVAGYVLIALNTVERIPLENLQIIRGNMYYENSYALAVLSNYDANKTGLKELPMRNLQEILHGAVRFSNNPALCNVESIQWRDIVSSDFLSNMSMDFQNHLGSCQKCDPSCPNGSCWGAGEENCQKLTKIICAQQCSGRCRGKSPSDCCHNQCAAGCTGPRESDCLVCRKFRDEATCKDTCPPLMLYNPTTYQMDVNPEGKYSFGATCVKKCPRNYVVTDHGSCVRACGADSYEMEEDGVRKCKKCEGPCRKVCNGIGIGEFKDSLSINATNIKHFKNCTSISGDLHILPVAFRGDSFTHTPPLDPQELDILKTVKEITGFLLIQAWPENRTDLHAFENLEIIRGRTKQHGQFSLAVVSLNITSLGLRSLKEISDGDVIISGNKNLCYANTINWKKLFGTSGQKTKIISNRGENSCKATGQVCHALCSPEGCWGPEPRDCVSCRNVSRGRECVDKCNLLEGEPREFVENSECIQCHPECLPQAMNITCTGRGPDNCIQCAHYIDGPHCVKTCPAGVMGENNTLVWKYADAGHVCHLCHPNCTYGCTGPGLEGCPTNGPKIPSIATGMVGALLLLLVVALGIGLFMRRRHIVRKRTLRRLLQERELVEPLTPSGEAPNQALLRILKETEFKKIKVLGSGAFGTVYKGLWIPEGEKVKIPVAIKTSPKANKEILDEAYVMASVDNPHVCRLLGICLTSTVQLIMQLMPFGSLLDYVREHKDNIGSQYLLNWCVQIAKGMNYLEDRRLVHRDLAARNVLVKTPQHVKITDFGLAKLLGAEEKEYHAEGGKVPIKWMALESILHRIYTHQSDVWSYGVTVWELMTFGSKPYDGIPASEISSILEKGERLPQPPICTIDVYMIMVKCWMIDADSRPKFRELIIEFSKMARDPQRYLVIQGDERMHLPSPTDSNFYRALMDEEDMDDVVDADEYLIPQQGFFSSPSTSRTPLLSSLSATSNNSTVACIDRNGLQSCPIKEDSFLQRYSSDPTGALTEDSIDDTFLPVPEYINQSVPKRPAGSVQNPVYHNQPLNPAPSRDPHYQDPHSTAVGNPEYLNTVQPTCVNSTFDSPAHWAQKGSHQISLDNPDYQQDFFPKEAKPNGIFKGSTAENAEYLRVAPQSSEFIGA

As for `CC(C)c1cnc(N2CC(CS(C)(=O)=O)C2)c2cnc(Nc3ccnc(-c4cnn(S(=O)(=O)C5CC5)c4)n3)cc12` [Example 3, N-(2-(1-(cyclopropylsulfonyl)-1H-pyrazol-4-yl)pyrimidin-4-yl)-5-isopropyl-8-(3-((methanesulfonyl)methyl)azetidin-1-yl)-2,7-diazanaphthalen-3-amine], the IC50 was determined as 5.5 nM in experiment [1], 9.4 nM in experiment [2] and 10 nM in experiment [3].

Regarding `CC(C)c1ccc(N2C[C@H](CS(C)(=O)=O)[C@H]2C)c2cnc(Nc3ccnc(-c4cn(CCO)nc4Cl)n3)cc12` [Example 11, 2-(3-chloro-4-(4-((5-isopropyl-8-((2R,3S)-2-methyl-3-((methanesulfonyl)methyl)azabut-1-yl)isoquinolin-3-yl)amino)pyrimidin-2-yl)-1H-pyrazol-1-yl)ethanol], the IC50 in experiment [1] came to 7.2 nM; in experiment [3], 24 nM.

With `CC(C)c1ccc(N2C[C@H](CS(C)(=O)=O)[C@H]2C)c2cnc(Nc3ccnc(-c4cn[nH]c4)n3)cc12` [Example 17, N-(2-(1H-pyrazol-4-yl)pyrimidin-4-yl)-5-isopropyl-8-((2R,3S)-2-methyl-3-((methanesulfonyl)methyl)azetidin-1-yl)isoquinolin-3-amine], the IC50 in experiment [2] is 3 nM; in experiment [4] it was 0.71 nM.

In the case of `CC(C)c1ccc(N2C[C@H](CS(C)(=O)=O)[C@H]2C)c2cnc(Nc3ccnc(-c4cnn(CC5(C#N)CC5)c4)n3)cc12` [Example 19, 1-((4-(4-((5-isopropyl-8-((2R,3S)-2-methyl-3-((methanesulfonyl)methyl)azetidin-1-yl)isoquinolin-3-yl)amino)pyrimidin-2-yl)-1H-pyrazol-1-yl)methyl)cyclopropane-1-carbonitrile], the results for the IC50 in experiment [2] and in experiment [4] were 2.5 nM and 1 nM, respectively.

With `CC(C)c1ccc(N2C[C@H](CS(C)(=O)=O)[C@H]2C)c2cnc(Nc3ccnc(-c4cnn(C(F)F)c4)n3)cc12` [Example 25, N-(2-(1-(difluoromethyl)-1H-pyrazol-4-yl)pyrimidin-4-yl)-5-isopropyl-8-((2R,3S)-2-methyl-3-((methanesulfonyl)methyl)azetidin-1-yl)isoquinolin-3-amine], the IC50 in experiment [1] came to 14 nM; in experiment [3], 54 nM.

Consider `CC(C)c1ccc(N2C[C@H](CS(C)(=O)=O)[C@H]2C)c2cnc(Nc3ccnc(-c4cnn(CC(F)(F)F)c4)n3)cc12` [Example 26, 5-isopropyl-8-((2R,3S)-2-methyl-3-((methanesulfonyl)methyl)azetidin-1-yl)-N-(2-(1-(2,2,2-trifluoroethyl)-1H-pyrazol-4-yl)pyrimidin-4-yl)isoquinolin-3-amine], for which the IC50 in experiment [3] was 78 nM; in experiment [4] it was 1 nM.

As for `Cc1nn(C)cc1-c1nccc(Nc2cc3c(C(C)C)ccc(N4C[C@H](CS(=O)(=O)N(C)C)[C@H]4C)c3cn2)n1` [Example 61, 1-((2R,3S)-1-(3-((2-(1,3-dimethyl-1H-pyrazol-4-yl)pyrimidin-4-yl)amino)-5-isopropylisoquinolin-8-yl)-2-methylazetidin-3-yl)-N,N-dimethyl methanesulfonamide], the IC50 is 9.1 nM in experiment [1] and 24 nM in experiment [3].

For `COCC1(Cn2cc(-c3nccc(Nc4cc5c(C(C)C)ccc(N6C[C@H](CS(C)(=O)=O)[C@H]6C)c5cn4)n3)cn2)CC1` [Example 66, 5-isopropyl-N-(2-(1-((1-(methoxymethyl)cyclopropyl)methyl)-1H-pyrazol-4-yl)pyrimidin-4-yl)-8-((2R,3S)-2-methyl-3-((methanesulfonyl)methyl)azetidin-1-yl)isoquinolin-3-amine], the IC50 in experiment [3] amounted to 78 nM; in experiment [4], 0.17 nM.

`CC(C)c1ccc(N2C[C@H](CS(C)(=O)=O)[C@H]2C)c2cnc(Nc3ccnc(-c4cn(C5CC5)nc4Cl)n3)cc12` [Example 70, N-(2-(3-chloro-1-cyclopropyl-1H-pyrazol-4-yl)pyrimidin-4-yl)-5-isopropyl-8-((2R,3S)-2-methyl-3-((methanesulfonyl)methyl)azetidin-1-yl)isoquinolin-3-amine]: the IC50 in experiment [1] turned out to be 11 nM; in experiment [3], 10 nM.

For `COCCn1cc(-c2nccc(Nc3cc4c(C(C)C)ccc(N5C[C@H](CS(C)(=O)=O)[C@H]5C)c4cn3)n2)c(Cl)n1` [Example 73, N-(2-(3-chloro-1-(2-methoxyethyl)-1H-pyrazol-4-yl)pyrimidin-4-yl)-5-isopropyl-8-((2R,3S)-2-methyl-3-((methanesulfonyl)methyl)azetidin-1-yl)isoquinolin-3-amine], the IC50 in experiment [1] was found to be 11 nM; in experiment [3] it was 8.5 nM.

With `CC(C)c1ccc(N2C[C@H](N3CCOC3=O)[C@H]2C)c2cnc(Nc3ccnc(-c4cn(C)nc4Cl)n3)cc12` [Example 74, 3-((2R,3S)-1-(3-((2-(3-chloro-1-methyl-1H-pyrazol-4-yl)pyrimidin-4-yl)amino)-5-isopropylisoquinolin-8-yl)-2-methylazetidin-3-yl)oxazolidin-2-one], the IC50 in experiment [1] and in experiment [3] was 14 nM each time.

As for `CC(C)c1ccc(N2C[C@H](CS(C)(=O)=O)[C@H]2C)c2cnc(Nc3ccnc(-c4cn(C5CCOCC5)nc4Cl)n3)cc12` [Example 78, N-(2-(3-chloro-1-(tetrahydro-2H-pyran-4-yl)-1H-pyrazol-4-yl)pyrimidin-4-yl)-5-isopropyl-8-((2R,3S)-2-methyl-3-((methanesulfonyl)methyl)azetidin-1-yl)isoquinolin-3-amine], the IC50 in experiment [1] was determined as 12 nM; in experiment [3], 27 nM.

On to `CC(C)c1ccc(N2CC(N(C)S(C)(=O)=O)C2)c2cnc(Nc3ccnc(-c4cn(CCO)nc4Cl)n3)cc12` [Example 79, N-(1-(3-((2-(3-chloro-1-(2-hydroxyethyl)-1H-pyrazol-4-yl)pyrimidin-4-yl)amino)-5-isopropylisoquinolin-8-yl)azetidin-3-yl)-N-methyl Methanesulfonamide], for which the IC50 is 7.7 nM in experiment [1] and 11 nM in experiment [3].

With `CC(O)Cn1cc(-c2nccc(Nc3cc4c(C(C)C)ccc(N5C[C@H](CS(C)(=O)=O)[C@H]5C)c4cn3)n2)c(Cl)n1` (stereo partly drawn) [Example 80, 1-(3-chloro-4-(4-((5-isopropyl-8-((2R,3S)-2-methyl-3-((methanesulfonyl)methyl)azetidin-1-yl)isoquinolin-3-yl)amino)pyrimidin-2-yl)-1H-pyrazol-1-yl)propan-2-ol], the IC50 in experiment [1] is 10 nM; in experiment [3] it was 17 nM.

The record behind these values is patent US20250368616A1, “NITROGEN-CONTAINING HETEROCYCLIC DERIVATIVE INHIBITOR, AND PREPARATION METHOD THEREFOR AND USE THEREOF” (SHANGHAI HANSOH BIOMEDICAL CO., LTD., priority 2021, published 2025).
